Data taken from US20230381157A1, “RIFABUTIN FOR THE TREATMENT OF ACINETOBACTER BAUMANNII” (University of Southern California, priority 2018, published 2023).
≈ marks a conversion by molar mass, not a printed value.

System: A. baumannii
Assay: MIC, broth microdilution, A. baumannii clinical isolates / strain panel
Type: cell-based, Acinetobacter baumannii
Conditions: for MIC50 / MIC90: A. baumannii strain panel

Structure (SMILES): CO[C@H]1/C=C/O[C@@]2(C)Oc3c(C)c(O)c4c(c3C2=O)C2=NC3(CCN(CC(C)C)CC3)NC2=C(NC(=O)/C(C)=C\C=C\[C@H](C)[C@H](O)[C@@H](C)[C@@H](O)[C@@H](C)[C@H](OC(C)=O)[C@@H]1C)C4=O [rifabutin]
- fold more potent than rifampin (RIF) (A. baumannii, RPMI with serum): 133 fold
- Rifabutin MIC (AB044, MHII): 3.12 µg/mL
- Rifabutin MIC (AB044, RPMI): 0.78 µg/mL
- Rifabutin MIC (AB046, MHII): 0.19 µg/mL
- Rifabutin MIC (AB046, MHII (first line)): 6.25 µg/mL
- Rifabutin MIC (AB307-0294, MHII): 6.25 µg/mL
- Rifabutin MIC (AB307-0294, RPMI): < 0.05 µg/mL
- Rifabutin MIC (AB15827, MHII): 3.13 µg/mL
- Rifabutin MIC (AB15827, RPMI): 0.2 µg/mL
- Rifabutin MIC (ARLG-1314, MHII): 6.25 µg/mL
- Rifabutin MIC (ARLG-1314, RPMI): < 0.05 µg/mL
- Rifabutin MIC (ARLG-1777, MHII): 6.25 µg/mL
- Rifabutin MIC (ARLG-1777, RPMI): 3.13 µg/mL
- Rifabutin MIC (ARLG-1915, MHII): 3.13 µg/mL
- Rifabutin MIC (ARLG-1915, RPMI): 0.1 µg/mL
- Rifabutin MIC (ATCC 17978, MHII): 3.12 µg/mL
- Rifabutin MIC (ATCC 17978, RPMI): < 0.05 µg/mL
- MIC (Acinetobacter baumannii, A. baumannii (strain not named), MHII): 4 µg/mL (≈ 4.72 µM)
- MIC (Acinetobacter baumannii, A. baumannii (strain not named), RPMI with serum): 0.031 µg/mL (≈ 0.0366 µM)
- MIC (Acinetobacter baumannii, A. baumannii VA-AB21, MHII): 3.12 µg/mL (≈ 3.69 µM)
- MIC (Acinetobacter baumannii, A. baumannii VA-AB21, RPMI): 0.391 µg/mL (≈ 0.462 µM)
- MIC50 (Acinetobacter baumannii, CAMHB): 3.13 µg/mL (≈ 3.7 µM)
- MIC90 (Acinetobacter baumannii, CAMHB): 6.25 µg/mL (≈ 7.38 µM)
- MIC50 (Acinetobacter baumannii, RPMI): 0.39 µg/mL (≈ 0.46 µM)
- MIC90 (Acinetobacter baumannii, RPMI): 3.13 µg/mL (≈ 3.7 µM)
- MIC (Acinetobacter baumannii, ATCC17978, A. baumannii ATCC17978 and HUMC1, MHII): 2 µg/mL (≈ 2.36 µM)
- MIC (Acinetobacter baumannii, ATCC17978, A. baumannii ATCC17978 and HUMC1, RPMI): < 0.0625 µg/mL
- fold lower MIC in RPMI than in Mueller-Hinton-based medium (CAMHB) (Acinetobacter baumannii, up to): up to 200 fold
- Rifabutin MIC (HUMC6, MHII): 25 µg/mL
- Rifabutin MIC (HUMC6, RPMI): 3.13 µg/mL
- Rifabutin MIC (HUMC10, MHII): 12.5 µg/mL
- Rifabutin MIC (HUMC10, RPMI): < 0.05 µg/mL
- Rifabutin MIC (LAC -- 4, MHII): 0.78 µg/mL
- Rifabutin MIC (LAC -- 4, RPMI): 1.56 µg/mL
- Rifabutin MIC (LACUSC-01, MHII): 6.25 µg/mL
- Rifabutin MIC (LACUSC-01, RPMI): < 0.05 µg/mL
- Rifabutin MIC (NIH1, MHII): 3.13 µg/mL
- Rifabutin MIC (NIH1, RPMI): 3.13 µg/mL
- Rifabutin MIC (UH118, MHII): 3.13 µg/mL
- Rifabutin MIC (UH118, RPMI): 0.2 µg/mL
- Rifabutin MIC (UH516, MHII): > 25 µg/mL
- Rifabutin MIC (UH516, RPMI): > 25 µg/mL
- Rifabutin MIC (UH2207, MHII): 6.25 µg/mL
- Rifabutin MIC (UH2207, RPMI): 3.13 µg/mL
- Rifabutin MIC (UH6507, MHII): 3.13 µg/mL
- Rifabutin MIC (UH6507, RPMI): 0.39 µg/mL
- Rifabutin MIC (VA-AB21, MHII): 3.12 µg/mL
- Rifabutin MIC (VA-AB21, RPMI): 0.391 µg/mL
- Rifabutin MIC (VA-AB74, MHII): 6.25 µg/mL
- Rifabutin MIC (VA-AB74, RPMI): 3.13 µg/mL
